# Test results from patent US20070207993A1, “Molybdenum carbonyl complexes for treating rheumatoid arthritis and other inflammatory diseases” (Alfama - Investigacao e Desenvolvimetno De Productos …, priority 2005, published 2007).
# Legend:
# [1] = Spontaneous CO release from suspensions (gas chromatography, TCD); type: physicochemical; conditions: suspension in RPMI with 10% FBS, 37° C., dark
# Method: CO detection was carried out by Gas Chromatography using a thermal conductivity detector (TCD) for the quantification of CO and CO2. The experiments were done under an initial atmosphere of reconstituted air, free of CO and CO2. […] […] Samples were withdrawn with gas-tight Hamilton syringes after homogenization of the head-space at given time intervals, preferably 2 hours, 4 hours and 6 hours. […] The volumes of CO released are usually in the range between 0.5-3 mL.
# As a possible result of the use of suspensions, the number of CO equivalents released in RPMI varied slightly. As an example of the possible variations, the average of eight independent assays done with suspensions of Compound I.1 is given in Table 2.
# rat arthritis model = conditions: previously shown, US 2003/0068387; cited from earlier work
# [2] = CO release in the presence of reactive oxygen species (TBHP, H2O2, KO2); type: physicochemical; conditions: 25° C., dark; for Equivalents of CO2 released, H2O2 / Equivalents of CO released, H2O2: H2O2 100:1, water; for Equivalents of CO2 released, TBHP / Equivalents of CO released, TBHP: TBHP 100:1, water
# Method: The studies were done using the same method and apparatus described in Example 7 with the following modifications: RPMI/FBS was replaced by double distilled water in the experiments with H2O2 and TBHP and by tetrahydrofuran (THF) for the experiments with KO2; the temperature was kept at 25° C. The concentration of Compound I.1 was approximately 1 mM and the ration of concentrations of H2O2, TBHP and KO2 relative to Compound I.1 was 100:1. The amount of CO2 generated was also measured in the same experiment to ascertain the concurrent oxidation of coordinated CO. TBHP was added from a 70% aqueous solution and H2O2 from a 30% aqueous solution.
compound,measurement,setting,value
"O=[C][Mo]([I])([C]=O)([C]=O)([C]=O)[C]=O [Compound I.18, [NH4](diglyme)3[Mo(CO)5I]]","Equivalents of CO released, RPMI",[1]; 2 hours,0.55 equivalents of CO
same,"Equivalents of CO released, RPMI",[1]; 4 hours,0.73 equivalents of CO
same,"Equivalents of CO released, RPMI",[1]; 6 hours,0.79 equivalents of CO
ClCCl [Methylene chloride],effects in a rat arthritis model,rat arthritis model,beneficial effects
"O=[C][Mo]([I])([C]=O)([C]=O)([C]=O)[C]=O [Compound I.16, K(diglyme)3 [Mo(CO)5I]]","Equivalents of CO released, RPMI",[1]; 2 hours,0.94 equivalents of CO
same,"Equivalents of CO released, RPMI",[1]; 4 hours,1.20 equivalents of CO
same,"Equivalents of CO released, RPMI",[1]; 6 hours,1.28 equivalents of CO
O=[C][Mo]([I])([C]=O)([C]=O)([C]=O)[C]=O [Compound I.6],"Equivalents of CO released, RPMI",[1]; 2 hours,0.42 equivalents of CO
same,"Equivalents of CO released, RPMI",[1]; 4 hours,1.00 equivalents of CO
same,"Equivalents of CO released, RPMI",[1]; 6 hours,1.25 equivalents of CO
same,"Equivalents of CO2 released, H2O2",[2]; 1 h,0.14 equivalents
same,"Equivalents of CO released, H2O2",[2]; 1 h,1.31 equivalents
same,"Equivalents of CO2 released, H2O2",[2]; 3 h,0.44 equivalents
same,"Equivalents of CO released, H2O2",[2]; 3 h,3.04 equivalents
same,"Equivalents of CO2 released, H2O2",[2]; 5 h,0.51 equivalents
same,"Equivalents of CO released, H2O2",[2]; 5 h,3.20 equivalents
same,"Equivalents of CO2 released, H2O2",[2]; 24 h,0.35 equivalents
same,"Equivalents of CO released, H2O2",[2]; 24 h,1.91 equivalents
same,"Equivalents of CO2 released, TBHP",[2]; 1 h,0.00 equivalents
same,"Equivalents of CO released, TBHP",[2]; 1 h,0.48 equivalents
same,"Equivalents of CO2 released, TBHP",[2]; 3 h,0.24 equivalents
same,"Equivalents of CO released, TBHP",[2]; 3 h,1.75 equivalents
same,"Equivalents of CO2 released, TBHP",[2]; 5 h,0.55 equivalents
same,"Equivalents of CO released, TBHP",[2]; 5 h,3.51 equivalents
same,"Equivalents of CO2 released, TBHP",[2]; 24 h,0.99 equivalents
same,"Equivalents of CO released, TBHP",[2]; 24 h,4.29 equivalents
